The test system of the test is TNFα secretion in white blood cells from human buffy coat stimulated with phorbol 12-myristate 13-acetate and ionomycin. The experiment in a line: TNFα secretion assay. The settings on record: for inhibition at 0.5 µM / inhibition at 1 µM / inhibition at 2 µM / inhibition at 4 µM / inhibition at 8 µM / inhibition at 0.2 µM / inhibition at 13 µM / inhibition at 26 µM: Homo sapiens; for inhibition at 0.5 µM: read-out: % inhibition of TNFα secretion, Ibudilast 0.5 μM; for inhibition at 1 µM: read-out: % inhibition of TNFα secretion, Ibudilast 1 μM; for inhibition at 2 µM: read-out: % inhibition of TNFα secretion, Ibudilast 2 μM; for inhibition at 4 µM: read-out: % inhibition of TNFα secretion, Ibudilast 4 μM; for inhibition at 8 µM: read-out: % inhibition of TNFα secretion, Ibudilast 8 μM; for inhibition at 0.2 µM: read-out: percent inhibition of TNFα secretion, Loratadine 0.2 μM; for inhibition at 13 µM: read-out: percent inhibition of TNFα secretion, Loratadine 13 μM; for inhibition at 26 µM: read-out: percent inhibition of TNFα secretion, Loratadine 26 μM; for percent inhibition of TNFα secretion: Bromodiphenhydramine HCl μM: 0/0.21/0.43/0.85/1.7/3.4/6.8/14/27.

[1] abbreviates: Bromodiphenhydramine HCl μM r5-r13: 0,0.21,0.43,0.85,1.7,3.4,6.8,14,27.
[2] abbreviates: Cyproheptadine HCl μM r5-r12: 0,0.24,0.48,0.96,1.9,3.9,7.7,15.
The mark [3] stands for this setting: Loratadine μM r5-r13: 0,0.2,0.41,0.82,1.6,3.3,6.5,13,26.
The mark [4] stands for this setting: Thiethylperazine Maleate μM r5-r13: 0,0.2,0.39,0.78,1.6,3.1,6.3,13,25.
Setting [5] is: Desipramine HCl: 0/0.25/0.5/1/2/4/8/16/32 μM.
Setting [6] is: Fluoxetine HCl μM: 0/0.23/0.45/0.9/1.8/3.6/7.2/14/29.
Where [7] appears, read: Paroxetine HCl: 0/0.21/0.42/0.83/1.7/3.3/6.7/13/27 μM.

Usually inhibition stands for the change of the read-out against control, counted positive when it falls.

Where a name gives a salt, the structure may show the parent alone. Read-outs that look alike come from different tables or passages of the source.

Protocol: Drugs were added to the indicated concentration. […] The plate was then washed again with 0.1% Tween 20/PBS. An HRP-luminescent substrate was added to each well, and the light intensity of each well was measured using a plate luminometer.

In the case of `CN(C)CCOC(C)(c1ccccc1)c1ccccn1` (stereo not shown) [Doxylamine Succinate], the “inhibition of TNFα secretion” value (prednisolone 1 μM, doxylamine succinate r5-r13: 0,0.2,0.4,0.8,1.6,3.2,6.4,13,26 μM) was found to be 34.
For the compound `CC(C)(C(=O)O)c1ccc(C(O)CCCN2CCC(C(O)(c3ccccc3)c3ccccc3)CC2)cc1` (stereo not shown) [Fexofenadine HCl], the “inhibition of TNFα secretion” value (prednisolone 0.5 μM, fexofenadine HCl r5-r13: 0,0.073,0.15,0.29,0.58,1.2,2.3,4.6,9.3 μM) is 50.
For the compound `CC(C)C(=O)c1c(C(C)C)nn2ccccc12` [Ibudilast], under setting [1], the inhibition at 0.5 µM came to 19%, the inhibition at 1 µM is 24%, the inhibition at 2 µM worked out at 36% and the inhibition at 4 µM is 43%. Besides, the inhibition at 8 µM under setting [1] stood at 41%. Under setting [2], the inhibition at 0.5 µM was determined as 20%, the inhibition at 1 µM came to 23%, the inhibition at 2 µM stood at 32% and the inhibition at 4 µM turned out to be 36%. Also, the inhibition at 8 µM under setting [2] was determined as 41%. Besides, under setting [3], the inhibition at 0.5 µM worked out at 21%, the inhibition at 1 µM came out at 32%, the inhibition at 2 µM was 35% and the inhibition at 4 µM turned out to be 39%. Besides, under setting [3], the inhibition at 8 µM was 43%. Besides, under setting [4], the inhibition at 0.5 µM is 23%, the inhibition at 1 µM amounted to 27%, the inhibition at 2 µM worked out at 38% and the inhibition at 4 µM is 42%. Under setting [4], the inhibition at 8 µM amounted to 48%.
As to `CCOC(=O)N1CCC(=C2c3ccc(Cl)cc3CCc3cccnc32)CC1` [Loratadine, loratadine], the inhibition at 0.2 µM was -1.95% under setting [5], 3.68% under setting [6] and -1.38% under setting [7]. The inhibition at 13 µM under setting [5] stood at 31.7%, the inhibition at 13 µM under setting [6] was determined as 42.9% and the inhibition at 13 µM under setting [7] came to 38.3%. The inhibition at 26 µM was 41.5% under setting [5], 56.6% under setting [6] and 43.4% under setting [7].
Turning to `CNCCC=C1c2ccccc2CCc2ccccc21.Cl` [Nortryptyline HCl], the “percent inhibition of TNFα secretion” value stood at 1.7 (Nortryptyline HCl 1 μM), 80 (Nortryptyline HCl 17 μM) and 92 (Nortryptyline HCl 33 μM).
